How the values were obtained:
[1] = test system: CD4+ T cells (TH1, TH2, TH17, Treg); assay: Fluorescence flow cytometry, polarization/expansion of CD4+ T cell subsets in spleens of EAE mice; design: species or system C57BL/6 mice; settings: EAE mice at peak of disease, ex vivo MOG restimulation
Protocol: Female C57BL/6 mice of 8-12 weeks of age, purchased from Jackson Laboratory, were provided with food and water ad libitum and were kept in pathogen free animal care facility of Medical University of South Carolina (MUSC) throughout the study. All procedures were conducted in accordance with accepted standards of humane care as approved by the Institutional Animal Care and Use Committee (Approved number: AR #1644). EAE was induced as described previously (Nath et al., 2009). Briefly, mice were immunized subcutaneously in the flank regions with MOG35-55 peptide (MOG; 200 μg; Peptide International) emulsified (1:1) in 100 ul complete Freund's adjuvant (CFA) on day 0 and day 7. Additionally, 300 ng of Pertussis toxin (Sigma-Aldrich, St. Louis, Mo.) was given on day 0 and day 2 by i.p. injection. Pertussis toxin used as per the standardized protocol reported by us and other investigators for the induction of EAE (Nath et al., 2009). Similarly, healthy control group received subcutaneous injection of PBS and CFA emulsion on day 0 and day 7. Clinical signs of EAE were scored by examiners blinded to experimental treatments using the following scale: 0=no clinical signs of disease; 1=piloerection and sluggish; 2=limp tail (ataxia); 2.5=ataxia with partial hind limb paralysis; 3=full paralysis of hind limb; 3.5=full paralysis of hind limb with paralysis of one fore limb; 4=full paralysis of two limbs; 4.5=moribund stage; 5=death. […] The drug treatments were continued till the termination of the study (day 41 post immunization). EAE animals without drug treatment received PBS. Likewise, healthy controls received vehicle.
Fluorescence flow cytometry analysis for each subset of CD4+ T cells (TH1, TH2, TH17, CD4+CD25+ FOXP3+ Treg, and CD4+CD25+ FOXP3− Treg) were performed based on our previous report with modification (Nath et al., 2004). Briefly, control mice, EAE mice. EAE mice treated with GSNO. […] Following the preparation of single cell suspension, red blood cells were lysed with Pharma lyse buffer (BD Pharmingen™) and the remaining spleen cells were washed with RPMI 1640. The isolated CD4+ T cells were then resuspended with complete RPMI-media in 12-well plates (5×10^6 cells' 2 ml per well) containing MOG peptide (25 μg/ml) for 48 hrs. Following the centrifugation, the resulted supernatants were collected for ELISA for CD4+ subset specific cytokines (see below). The cell pellets were washed with cell staining solution (ebioscience, Waltham, Mass. USA) and stained with fluorescence labeled antibody specific to IFN-γ for TH1. IL-4 for TH2, IL-17 for TH17, CD25+ for total Treg. CD25+ and FOXP3+ for FOXP3+ Treg, and CD25+ and FOXP3− for FOXP3-Tregs (ebioscience, Waltham, Mass., USA). The cells were counted and analyzed using Beackman Coulter instrument (Beckman Coulter, Inc., Brea, Calif., USA).

[2] = test system: mononuclear cells; assay: H&E staining, peripheral mononuclear cell infiltration in EAE mice; assay type: in vivo, C57BL/6J mice; settings: GSNO 1 mg/kg/day or FeTPPS 30 mg/kg/day i.p.
Protocol: EAE was induced as described previously (Nath et al., 2009). Animal procedures were approved by the institutional animal care and use committee of MUSC (AR #1644). Briefly, female C57BL/6J mice of 8-12 weeks of age weighing 18-22 g (The Jackson Laboratory, Bar Harbor, Me., USA) were randomly divided into four groups: 1) EAE animals treated with vehicle (EAE; n=8), 2) EAE with GSNO (1 mg/kg body weight per day; i.p.) treatment (EAE+GSNO; n=12), 3) EAE with FeTPPS (30 mg/kg body weight per day; i.p.) treatment (EAE+FeTPPS; n=8), 4) control with vehicle (Ctrl; n=8). The group size was determined by power analysis based on our previous data (Nadi et al., 2009). Then, the mice were immunized subcutaneously in the flank regions with MOG35-55 peptide (MOG; 200 ug; Peptide International) emulsified (1:1) in 100 ul complete Freund's adjuvant (CFA) CHI day 0 and day 7. […] Clinical signs of EAE were scored in animal facility in a blinded fashion to experimenter between 2 and 4 pm daily by examiners blinded to experimental treatments using the following scale: 0=no clinical signs of disease; 1=limp tail or waddling gait with tail tonicity; 2=waddling gait with limp tail (ataxia); 2.5=ataxia with partial limb paralysis; 3=full paralysis of one limb; 3.5=full paralysis of one limb with partial paralysis of second limb; 4=full paralysis of two limbs; 4.5=moribund stage; 5=death. […]

[3] = test system: mononuclear cells; assay: H&E staining, spinal cord infiltration of mononuclear cells in EAE mice; assay type: in vivo, C57BL/6 mice; settings: 1 mg/kg/day
Protocol: Female C57BL/6 mice of 8-12 weeks of age, purchased from Jackson Laboratory, were provided with food and water ad libitum and were kept in pathogen free animal care facility of Medical University of South Carolina (MUSC) throughout the study. All procedures were conducted in accordance with accepted standards of humane care as approved by the Institutional Animal Care and Use Committee (Approved number: AR #1644). EAE was induced as described previously (Nath et al., 2009). Briefly, mice were immunized subcutaneously in the flank regions with MOG35-55 peptide (MOG; 200 μg; Peptide International) emulsified (1:1) in 100 ul complete Freund's adjuvant (CFA) on day 0 and day 7. Additionally, 300 ng of Pertussis toxin (Sigma-Aldrich, St. Louis, Mo.) was given on day 0 and day 2 by i.p. injection. […] Clinical signs of EAE were scored by examiners blinded to experimental treatments using the following scale: 0=no clinical signs of disease; 1=piloerection and sluggish; 2=limp tail (ataxia); 2.5=ataxia with partial hind limb paralysis; 3=full paralysis of hind limb; 3.5=full paralysis of hind limb with paralysis of one fore limb; 4=full paralysis of two limbs; 4.5=moribund stage; 5=death. […]
Tissue samples were embedded in paraffin block and sectioned transversely (5 μm-thick). […] For the quantitation of infiltrates, the digital images were analyzed by ImageJ (NIH, Bethesda, Md.). […]

N[C@@H](CCC(=O)N[C@@H](CSN=O)C(=O)NCC(=O)O)C(=O)O [GSNO, S-nitrosoglutathione]
polarization/expansion of CD4+CD25+ FOXP3+ Treg cells in spleens [1]: without altering | polarization/expansion of CD4+CD25+ FOXP3− Treg cells in spleens [1]: significantly increased | polarization/expansion of TH1 cells in spleens [1]: no obvious effect | polarization/expansion of TH17 cells in spleens [1]: significantly decreased | polarization/expansion of total Treg cells (CD4+CD25+) in spleens [1]: increased | extravasation of peripheral mononuclear cells into the CNS [2]: significantly decreased | spinal cord infiltration of mononuclear cells [3]: reduced

Cc1cc(C(N)=O)ccc1-n1c(CCC(=O)O)ccc1-c1ccc(-n2ccnc2)cc1 [N6022, reference compound]
TH2 polarization/expansion in spleens [1]: fully restored | polarization/expansion of CD4+CD25+ FOXP3+ Treg cells in spleens [1]: restored | polarization/expansion of CD4+CD25+ FOXP3− Treg cells in spleens [1]: increased | polarization/expansion of TH1 cells in spleens [1]: reduced | polarization/expansion of TH17 cells in spleens [1]: reduced | spinal cord infiltration of mononuclear cells [3]: significantly reduced

Cl.O=S(=O)([O-])c1ccc(-c2c3nc(c(-c4ccc(S(=O)(=O)O)cc4)c4ccc([nH]4)c(-c4ccc(S(=O)(=O)O)cc4)c4nc(c(-c5ccc(S(=O)(=O)O)cc5)c5ccc2[nH]5)C=C4)C=C3)cc1.[Fe] [FeTPPS, 5,10,15,20-Tetrakis(4-sulfonatophenyl)porphyrinato Iron (III), Cl, reference compound]
extravasation of peripheral mononuclear cells into the CNS [2]: significantly decreased
